Four compounds from the supplement of paper PMC4862054 can be followed below.

One assay has as its system HCC1599. The experiment in a line: drug sensitivity score (DSS), CellTiter-Glo (DSS (AUC-based score)); higher = stronger drug effect (viability inhibition or cytotoxicity); extreme values may be limits of the assay. The settings on record: incubation time: 72 h. The procedure, abridged: (§1)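 Compound was dispensed into 384-well plates at 5 concentrations in 10-fold steps spanning a 10,000-fold range chosen for each compound, and 20 µl of breast cancer cell suspension was added before 72 h of incubation. CellTox Green fluorescence was read at 485/520 nm, followed by CellTiter-Glo luminescence after 10 min at room temperature. Values on each plate were normalised to 0.1 % DMSO and a positive kill control. The drug sensitivity score came from the area under the fitted dose-response curve.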
On the technique in general: ATP-based viability assays read luminescence as a measure of living cells.

Assay [1] has as its system CAL-51. The description is as above. The settings on record: incubation time: 72 h. The procedure, abridged: as §1
Assay [2] deals with MDA-MB-231. Described as above. The following applies: incubation time: 72 h. The procedure, abridged: as §1
The subject of the next assay is CAL-120. The assay is described as above. The settings on record: incubation time: 72 h. The procedure, abridged:
as §1

The test system of assay [3] is CAL-148. The assay is described as above. The following applies: incubation time: 72 h. The procedure, abridged:
as §1

Assay [4] deals with DU-4475. Described as above. The following applies: incubation time: 72 h. The procedure, abridged:
as §1

The test system of assay [5] is MDA-MB-453. The description is as above. The settings on record: incubation time: 72 h. The procedure, abridged:
as §1

Assay [6] relates to CAL-85-1. Described as above. The following applies: incubation time: 72 h. The procedure, abridged:
as §1

The next assay has as its system HCC1937. Nature of the assay: normalised viability (% of control), CellTiter-Blue; higher = more viable cells (about 100 = DMSO control). The following applies: incubation time: 72 h. The procedure, abridged: (§2)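 Vehicle (100) and a positive kill control (0) anchored the normalisation of each plate, and Z'-factor was used for quality control. Breast cancer cell lines in 20 µl suspension were incubated 72 h over compound in 5 µl medium in 384-well plates, followed by CellTiter-Blue at 560/590 nm. The value is normalised viability at a single listed concentration of the series.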

The next assay has as its system SK-BR-3. The description is as above. The following applies: incubation time: 72 h. The procedure, abridged:
as §2

For a further assay, the system named is Hs578T. Described as above. The settings on record: incubation time: 72 h. The procedure, abridged: as §2
The subject of assay [7] is CAL-51. The description is as above. The settings on record: incubation time: 72 h. The procedure, abridged:
as §2

Assay [8] has as its system MDA-MB-231. The description is as above. The settings on record: incubation time: 72 h. The procedure, abridged:
as §2

Another assay has as its system BT-549. The description is as above. The following applies: incubation time: 72 h. The procedure, abridged: as §2
Another assay concerns MDA-MB-468. The assay is described as above. The following applies: incubation time: 72 h. The procedure, abridged:
as §2

For another assay, the system named is HDQ-P1. The description is as above. The settings on record: incubation time: 72 h. The procedure, abridged: as §2
The subject of assay [9] is CAL-148. The description is as above. The settings on record: incubation time: 72 h. The procedure, abridged:
as §2

A further assay has as its system MFM-223. The description is as above. The following applies: incubation time: 72 h. The procedure, abridged: as §2
Assay [10] relates to DU-4475. The assay is described as above. The settings on record: incubation time: 72 h. The procedure, abridged:
as §2

A further assay relates to HCC1143. The assay is described as above. The following applies: incubation time: 72 h. The procedure, abridged:
as §2

The next assay relates to BT-474. The assay is described as above. The following applies: incubation time: 72 h. The procedure, abridged: as §2
Assay [11] concerns MDA-MB-453. Described as above. The settings on record: 3 nM; incubation time: 72 h. The procedure, abridged: as §2
In another assay the test system is MDA-MB-436. Described as above. The settings on record: incubation time: 72 h. The procedure, abridged:
as §2

Assay [12] relates to CAL-85-1. The description is as above. The following applies: incubation time: 72 h. The procedure, abridged: as §2

Several values for one entry are separate records, joined by “and”; a condition that tells them apart may be missing. Equal values may be shown once.

`Nc1ncn([C@H]2C[C@H](O)[C@@H](CO)O2)c(=O)n1` [Decitabine]: the drug sensitivity score came to 0 with HCC1599; 3.54 in the assay with CAL-51 [1]; 0 in the assay on MDA-MB-231 [2]; 0.811 in the assay with CAL-120; 0 in the assay with CAL-148 [3]; 0 with DU-4475 [4]. For the same compound, the drug sensitivity score in the assay with MDA-MB-453 [5] and in the assay on CAL-85-1 [6] was 0 in each case. In addition, the normalised viability with HCC1937 (10 nM) is 120% and 99%; in the assay with HCC1937 (1000 nM), 77.2% and 76.6%; with HCC1937 (10000 nM) it was 69.2% and 62.8%; with SK-BR-3 (10 nM), 84.5% and 98.1%; in the assay on SK-BR-3 (1000 nM), 90.2% and 88.1%; in the assay with SK-BR-3 (10000 nM) it was 69.1% and 74.5%. Moreover, the normalised viability in the assay with Hs578T (10 nM) was 103% and 112%; with Hs578T (1000 nM), 92.5% and 114%; in the assay with Hs578T (10000 nM), 83.6% and 93.2%; in the assay on CAL-51 [7] (3 nM), 116% and 108%; in the assay with CAL-51 [7] (30 nM), 117% and 101%; in the assay with CAL-51 [7] (100 nM), 101% and 96.8%. Further, the normalised viability with MDA-MB-231 [8] (10 nM) was 86.9% and 92.8%; in the assay with MDA-MB-231 [8] (1000 nM), 74% and 92.3%; in the assay on MDA-MB-231 [8] (10000 nM), 69.8% and 71.6%; in the assay on BT-549 (10 nM), 94.6% and 101%; in the assay on BT-549 (1000 nM), 81.7% and 89.3%; in the assay on BT-549 (10000 nM), 57.7% and 65.1%. In addition, the normalised viability with MDA-MB-468 (10 nM) was 109% and 102%; in the assay with MDA-MB-468 (1000 nM), 28.7% and 29.4%; with MDA-MB-468 (10000 nM), 27% and 29.1%; in the assay with HDQ-P1 (30 nM), 93% and 96.6%; with HDQ-P1 (100 nM), 96.1% and 92%; in the assay on CAL-148 [9] (3 nM), 92.8% and 76.2%. The normalised viability in the assay with CAL-148 [9] (30 nM) was 91.4% and 85.8%; in the assay on CAL-148 [9] (100 nM), 86.2% and 96.3%; in the assay on MFM-223 (10 nM), 80.2% and 104%; with MFM-223 (1000 nM) it was 84.7% and 102%; with MFM-223 (10000 nM), 90.1% and 98.6%; with DU-4475 [10] (3 nM), 110% and 98.7%. The normalised viability with DU-4475 [10] (30 nM) was 81.5% and 97.7%; with DU-4475 [10] (100 nM) it was 86.9% and 96.8%; with HCC1143 (10 nM), 82.7% and 80.8%; in the assay with HCC1143 (1000 nM), 68.5% and 78.8%; in the assay with HCC1143 (10000 nM), 56% and 59.8%; in the assay on BT-474 (10 nM), 109% and 104%. Besides, the normalised viability is 89.4% and 86.7% with BT-474 (1000 nM); 95.1% and 79.7% with BT-474 (10000 nM); 107% and 118% with MDA-MB-453 [11]; 85% and 75% with MDA-MB-436 (10 nM); 69.6% and 68.2% in the assay on MDA-MB-436 (1000 nM); 70.5% and 71.4% in the assay on MDA-MB-436 (10000 nM). Further, the normalised viability in the assay on CAL-85-1 [12] (3 nM) is 91.9% and 103%; in the assay on CAL-85-1 [12] (30 nM) it was 83.4% and 91.2%; in the assay on CAL-85-1 [12] (100 nM), 93.6% and 93.9%.
As to `CNC(=O)c1cc(Oc2ccc(NC(=O)Nc3cc(C(C)(C)C)nn3-c3ccc4ncccc4c3)c(F)c2)ccn1` [Rebastinib], the drug sensitivity score with HCC1599 was found to be 0; in the assay with CAL-51 [1], 0; in the assay on MDA-MB-231 [2] it was 0; with CAL-120, 2.56; in the assay on CAL-148 [3], 0; in the assay on DU-4475 [4], 0. Further, the drug sensitivity score with MDA-MB-453 [5] and in the assay on CAL-85-1 [6] was 0 throughout.
In the case of `CC(=O)Nc1cccc(-n2c(=O)n(C3CC3)c(=O)c3c(Nc4ccc(I)cc4F)n(C)c(=O)c(C)c32)c1` [Trametinib], the drug sensitivity score in the assay on HCC1599 stood at 0; in the assay on CAL-51 [1], 0; in the assay with MDA-MB-231 [2], 5.25; in the assay with CAL-120, 5.16; with CAL-148 [3] it was 0; in the assay with DU-4475 [4] it was 27.2. Also, the values for the drug sensitivity score in the assay with MDA-MB-453 [5] and in the assay on CAL-85-1 [6] were 0 and 6.58, respectively.
Regarding `COc1cc2c(NC3CCN(C(C)C)CC3)nc(C3CCCCC3)nc2cc1OCCCN1CCCC1` [UNC0638], the drug sensitivity score stood at 2.99 in the assay with HCC1599; 7.71 in the assay with CAL-51 [1]; 6.74 with MDA-MB-231 [2]; 6.05 in the assay on CAL-120; 5.21 in the assay on CAL-148 [3]; 0.314 in the assay on DU-4475 [4]. Moreover, the figures for the drug sensitivity score in the assay with MDA-MB-453 [5] and in the assay with CAL-85-1 [6] were 7.02 and 5.07, respectively.
